How the values were obtained:
[1] = tested on: Erysiphe graminis f. sp. Hordei; test: Erysiphe test (barley) / protective; format: in vivo; conditions: Blumeria graminis, 168 h; barley plants, protective spray, 500 ppm active compound, evaluation 7 days after inoculation; read-out: efficacy
Experimental: Solvent: 49 parts by weight of N,N-dimethylformamide
Emulsifier: 1 part by weight of alkylaryl polyglycol ether
To produce a suitable preparation of active compound, 1 part by weight of N-ethyl-N-methyl-N′-[4-phenoxy-2,5-xylyl]formamidine (according to formula I-a) is mixed with the stated amounts of solvent and emulsifier, and the concentrate is diluted with water to the desired concentration.
To test for protective activity, young cereal plants are sprayed with the active compound preparation at the stated application rate. 1 day after the treatment, the plants are inoculated with spores of Erysiphe graminis f. sp. Hordei. The plants are then placed in a greenhouse at 70% relative atmospheric humidity and a temperature of 18° C.
Evaluation is carried out 7 days after the inoculation. 0% means an efficacy which corresponds to that of the control, whereas an efficacy of 100% means that no infection is observed.

Row | Compound | logP (logP (acidic, pH 2.3); pH 2.3) | pest or weed control at 500 ppm [1] | log P (pH2.3) (logP (acidic, pH 2.3); pH 2.3) | logP acidic (logP (acidic, pH 2.3); acidic)
1 | COC(C)(C)c1cccc(Oc2cc(C)c(/N=C/N3CC(C)OC(C)C3)cc2C)c1 (stereo not shown) [Compound 65-2, N-[(1E)-(2,6-dimethyl-morpholin-4-yl)methylene]-4-[3-(1-methoxy-1-methylethyl)phenoxy]-2,5-dimethylaniline] | 2.24 | – | – | –
2 | Cc1cc(/N=C/N2CCCCC2C)c(Cl)cc1Oc1cccc(C(C)C)c1 (stereo not shown) [Compound 61-4, 2-chloro-4-(3-isopropylphenoxy)-5-methyl-N-[(1E)-(2-methylpiperidin-1-yl)methylene]aniline] | 2.67 | – | – | –
3 | CCN(C)C=Nc1cc(C)c(Oc2cccc(C(C)(C)OC)c2)cc1C [Compound 37, N-ethyl-N′-{4-[3-(1-methoxy-1-methylethyl)phenoxy]-2,5-dimethylphenyl}-N-methylimidoformamide] | 2.14 | ≥ 70% | – | –
4 | Cc1cc(N)c(Cl)cc1Oc1cccc(C(C)C)c1 [4-(3-Isopropylphenoxy)-2-chloro-5-methylaniline] | 4.68 | – | – | –
5 | CCN(C)C=Nc1cc(C)c(Oc2cccc(CCCO)c2)cc1C [Compound 57-1, N-ethyl-N′-{4-[3-(3-hydroxypropyl)phenoxy]-2,5-dimethylphenyl}-N-methylimidoformamide] | 1.56 | – | – | –
6 | 4-(3-Isopropylphenoxy)-2-chloro-5-methylnitrobenzene | – | – | 5.54 | –
7 | Cc1cc(/N=C/N2CCCCC2)c(Cl)cc1Oc1cccc(C(C)C)c1 [Compound 61-3, 2-chloro-4-(3-isopropylphenoxy)-5-methyl-N-[(1E)-piperidin-1-ylmethylene]aniline] | 2.62 | – | – | –
8 | CCN(C)C=Nc1cc(C)c(Oc2cccc(CC(C)(C)C)c2)cc1C [Compound 62, N′-{4-[3-(2,2-dimethylpropyl)phenoxy]-2,5-dimethylphenyl}-N-ethyl-N-methylimidoformamide] | 2.74 | ≥ 70% | – | –
9 | CCN(C)C=Nc1cc(C)c(Oc2cccc(C(C)C)c2)cc1Cl [Compound 61-1, N′-[2-chloro-4-(3-isopropylphenoxy)-5-methylphenyl]-N-ethyl-N-methylimidoformamide] | 2.38 | ≥ 70% | – | –
10 | Cc1cc(Oc2cccc(CCCO)c2)c(C)cc1N=CN(C)C(C)C [Compound 57-2, N′-{4-[3-(3-hydroxypropyl)phenoxy]-2,5-dimethylphenyl}-N-isopropyl-N-methylimidoformamide] | 1.67 | ≥ 70% | – | –
11 | CCN(C)C=Nc1cc(C)c(Oc2cccc(C(C)(CC)OC)c2)cc1C (stereo not shown) [Compound 8, N-ethyl-N′-{4-[3-(1-methoxy-1-methylpropyl)phenoxy]-2,5-dimethylphenyl}-N-methylimidoformamide] | – | ≥ 70% | – | –
12 | CCCN(C)C=Nc1cc(C)c(Oc2cccc(C(C)(C)OC)c2)cc1C [Compound 65-1, N′-{4-[3-(1-methoxy-1-methylethyl)-phenoxy]-2,5-dimethylphenyl}-N-methyl-N-propyl imidoformamide] | – | – | – | 2.50
13 | CCN(C)C=Nc1cc(C)c(Oc2cccc(C[Si](C)(C)C)c2)cc1C [Compound 63, N′-(2,5-dimethyl-4-{3-[(trimethylsilyl)methyl]-phenoxy}phenyl)-N-ethyl-N-methylimido-formamide] | 2.93 | ≥ 70% | – | –
14 | Cc1cc(N=CN(C)C(C)C)c(Cl)cc1Oc1cccc(C(C)C)c1 [Compound 61-2, N′-[2-chloro-4-(3-isopropylphenoxy)-5-methylphenyl]-N-isopropyl-N-methylimidoformamide] | 2.54 | ≥ 70% | – | –
15 | CCN(C)C=Nc1cc(C)c(Oc2cccc(C3CC3)c2)cc1C [Compound 64, N′-[4-(3-cyclopropylphenoxy)-2,5-dimethylphenyl]-N-ethyl-N-methylimido-formamide] | 2.35 | ≥ 70% | – | –

From patent US8394991B2, “Phenoxy substituted phenylamidine derivatives and their use as fungicides” (Bayer Cropscience AG, priority 2007, dated 2013)
